Seven compounds from ChEMBL document CHEMBL1131056, “Rational design of antitumor prostaglandins with high biological stability” (J Med Chem, 1998) can be followed below.

One assay relates to A 172. In words: Growth inhibition time for A172 Human Glioma cell growth at concentration 5 uM. In kind it is functional.
Another assay concerns Colon 26. Nature of the assay: Antiproliferative Activity against colon 26 cancer cells. In kind it is functional, cell-based. To be noted: Mus musculus.

Each structure is given as a SMILES string. Converted amounts (≈) assume the structure as drawn. Some results are limits rather than exact numbers.

In the assay with A 172, `CCCCC[C@@H](O)/C=C/[C@@H]1C=CC(=O)/C1=C/CCCCCC(=O)OC` displayed an Inhibition period above 72 h.
Consider `CCCCC[C@H](O)/C=C/[C@H]1C=CC(=O)/C1=C/CCCCCC(=O)O`, for which half-maximal inhibition in the assay with Colon 26 (IC50) required 0.57 µg/mL (≈ 1.7 µM).
In the assay with Colon 26, `CCCCCC/C=C/[C@@H]1C=CC(=O)/C1=C/CCCCCC(=O)O` showed an IC50 of 0.23 µg/mL (≈ 0.722 µM). Compared with the last compound, the IC50 is about 2.5-fold lower.
In the assay on A 172, `CCCCC[C@H](O)/C=C/[C@H]1C=CC(=O)/C1=C/CCCCCC(=O)OC` returned an Inhibition period below 48 h.
Still for that read-out and setting: the figure for `CCCCC[C@H](O)/C=C/[C@@H]1C=CC(=O)/C1=C/CCCCCC(=O)OC` is above 72 h.
For `CCCCC[C@@H](O)/C=C/[C@@H]1C=CC(=O)/C1=C/CCCCCC(=O)O`, the IC50 in the assay on Colon 26 came to 0.5 µg/mL (≈ 1.49 µM).
Same read-out and setting: the figure for `CCCCC[C@H](O)/C=C/[C@@H]1C=CC(=O)/C1=C/CCCCCC(=O)O` is 0.35 µg/mL (≈ 1.05 µM).

By IC50 is commonly meant the concentration needed to halve the response being measured.
